Each structure is given as a SMILES string. Bounds are passed on as bounds.

One test has as its system OVCAR3 p-RB. Nature of the test: pRB ICW assay in OVCAR3 cells. The conditions noted are these: Homo sapiens, OVCAR-3, incubated with compound for 2 hours. The class given is cell-based. As to the method:
pRB ICW Assay in OVCAR3 Cells
OVCAR3 cells were maintained in RPMI (Corning, Catalog #: 10-040-CV) supplemented with 10% v/v FBS (Gibco, Catalog #: 26140-079), 1% v/v Penicillin Streptomycin (Gibco, Catalog #15140-122.) OVCAR3 cells grown at log phase were trypsinized, counted, and resuspended in fresh medium to reach a final density of 6.7e4 cells/mL and 75 μL of culture were dispensed into a 384-well plate (Falcon, cat #353962) using Multidrop Combi dispenser (Thermo Scientific). The next day, compounds were dispensed as a 9-point, ½ log serial dilution using a Tecan digital dispenser (D300e), and cells were incubated with compound for 2 hours in a humidified incubator at 37° C. A reference compound at a final concentration of 10 μM was used as a control for maximum inhibition. Each compound was tested in duplicates in each experiment. At the end of the incubation, 25 μL of 16% paraformaldehyde (Electron Microscopy, cat #15710) was slowly added to each well and the plate was incubated at room temperature (RT) for 30 minutes to fix cells. Cells were then permeabilized by incubating with 50 μL/well of wash buffer (lx PBS with 0.1% Triton X-100) 5×5 minutes, followed by 1 hour blocking with 30 μL/well of Odyssey blocking buffer (Li-COR, cat #927-40000), all at RT. Anti-phosphor RB antibody (Cell signaling 8516S) was diluted 1:1000 in Odyssey blocking buffer and 20 μL was added to all wells and incubated overnight in 4° C. with gently rocking. The next day, cells were washed 5×5 min with 50 μL/well of wash buffer, followed with 1 hour incubation with secondary antibody and DRAQ5 diluted in Odyssey blocking buffer (1:500 dilution for secondary antibody and 1:2000 dilution for DRAQ5), 5×5 min washes, and one last wash with water. Plates were dried in 37° C. oven for 5 min and scanned using Li-COR Odyssey CLx imaging system to acquire intensities at 700 and 800 nm channels.

For a further test, the target named is CDK2/Cyclin E2 (Homo sapiens, UniProt P24941). As to the kind of experiment: CDK2/CyclinE2 enzymatic activity assay (TR-FRET). The class given is biochemical. The conditions noted are these: ATP 1 mM final, read-out: CDK2_E1 IC50. As to the method: CDK2/CyclinE2 Enzymatic Activity Assay
(§1) The inhibitory activity of compounds was evaluated in vitro using TR-FRET assay with white 384-well low volume microplate (Greiner Bio-One). CDK2/Cyclin E2 catalyzed phosphorylation of peptide in the presence and absence of compounds was measured and used in IC50 determination. Recombinant protein complex CDK2/Cyclin E2, expressed from insect cell, was purchased from ProQinase. Testing compounds were dissolved in DMSO at 1 mM and tested in 9-dose IC50 mode. The reaction mixture was prepared by mixing CDK2/CyclinE2 (1 nM final), ULight-4E-BP1 (50 nM final, Perkinelmer, TRF0128-D), and ATP (1 mM final) in assay buffer (20 mM of HEPES pH 7.4, 1 mM of EGTA, 0.05% BSA, 0.005% Tween 20, and 1 mM TCEP). The compound of interest in DMSO was added to each well in 3-fold serial dilution by dispenser (TECAN D300E) to make a 9.9 μL of reaction mixture. After 20 minutes preincubation at room temperature, 0.1 μL MgCl2 (10 mM final) was added to initiate the reaction. Following a 45 minute incubation at 37° C., the reaction was stopped by addition of 2 μL of quenching buffer consisting of Lance detection buffer (Perkinelmer CR97-100C), LANCE Ultra Europium-anti-P-4E-BP1 (Perkinelmer, TRF0216-D), EDTA, and incubate at room temperature for an additional 60 minutes in the dark. The reaction signal was measured by Envision multimode plate reader (PerkinElmer, 2102-0010). IC50 values were determined by fitting the data to the standard 4 parameters with Hill Slope using GraphPad Prism software.
Background: Time-resolved FRET reads energy transfer from a long-lived donor to a nearby acceptor.

The target of another test is T1, CDK4/Cyclin D1 (Homo sapiens, UniProt P11802).
T1 construct: purchased ProQinase; host or cells: insect cell
T1 sequence (P11802 whole entry): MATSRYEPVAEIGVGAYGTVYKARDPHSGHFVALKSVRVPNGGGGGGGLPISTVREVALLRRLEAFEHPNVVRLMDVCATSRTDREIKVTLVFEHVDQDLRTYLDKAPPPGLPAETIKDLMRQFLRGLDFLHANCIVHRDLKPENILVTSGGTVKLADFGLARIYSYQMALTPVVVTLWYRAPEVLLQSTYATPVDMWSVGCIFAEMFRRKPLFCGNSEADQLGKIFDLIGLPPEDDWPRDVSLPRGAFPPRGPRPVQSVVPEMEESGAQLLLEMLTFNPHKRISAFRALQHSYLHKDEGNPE
T1 sequence (P24385 whole entry partner): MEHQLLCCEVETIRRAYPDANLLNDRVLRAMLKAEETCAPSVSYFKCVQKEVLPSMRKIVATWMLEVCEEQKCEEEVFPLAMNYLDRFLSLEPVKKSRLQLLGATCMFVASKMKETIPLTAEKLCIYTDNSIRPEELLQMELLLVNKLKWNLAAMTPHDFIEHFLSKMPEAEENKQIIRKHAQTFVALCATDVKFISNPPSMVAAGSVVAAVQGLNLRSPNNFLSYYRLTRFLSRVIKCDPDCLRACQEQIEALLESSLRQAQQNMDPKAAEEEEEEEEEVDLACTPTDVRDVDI
As to the kind of experiment: CDK4/CyclinD1 enzymatic activity assay (TR-FRET). The conditions noted are these: ATP 2 mM final, read-out: CDK4_D1 IC50. The class given is biochemical. As to the method:
CDK4/CyclinD1 Enzymatic Activity Assay
as §1, with “Bio-One). CDK4/Cyclin D1” for “Bio-One). CDK2/Cyclin E2”, “in IC5” for “in IC50”, “complex CDK4/Cyclin D1,” for “complex CDK2/Cyclin E2,”, “mixing CDK4/CyclinD1” for “mixing CDK2/CyclinE2”, “ULight-4E-BP1 (100” for “ULight-4E-BP1 (50”, “ATP (2” for “ATP (1”

For `CS(=O)(=O)N1CCC(Nc2ncc(C(F)(F)F)c(-c3cnc(N4CCCC4)s3)n2)CC1` [Example 1, N-(1-Methylsulfonylpiperidin-4-yl)-4-(2-pyrrolidin-1-yl-1,3-thiazol-5-yl)-5-(trifluoromethyl)pyrimidin-2-amine], the IC50 (commonly the midpoint of a concentration-inhibition curve) with OVCAR3 p-RB was 0.1 to 1 µM; on CDK2/Cyclin E2 it was not above 0.1 µM; at CDK4/Cyclin D1 it was not above 0.1 µM.
`CS(=O)(=O)N1CCC(Nc2ncc(C(F)(F)F)c(-c3cnc(C4=CCOCC4)s3)n2)CC1` [Example 2, 4-[2-(3,6-Dihydro-2H-pyran-4-yl)-1,3-thiazol-5-yl]-N-(1-methyl-sulfonylpiperidin-4-yl)-5-(trifluoromethyl)pyrimidin-2-amine]: the IC50 was 0.1 to 1 µM in the test on OVCAR3 p-RB, 0.1 to 1 µM at CDK2/Cyclin E2 and not above 0.1 µM on CDK4/Cyclin D1.
Regarding `CS(=O)(=O)N1CCC(Nc2ncc(C(F)(F)F)c(-c3cnc(C4CCOCC4)s3)n2)CC1` [Example 3, N-(1-methylsulfonylpiperidin-4-yl)-4-[2-(oxan-4-yl)-1,3-thiazol-5-yl]-5-(trifluoromethyl)pyrimidin-2-amine], the IC50 in the test on OVCAR3 p-RB was 0.1 to 1 µM; at CDK2/Cyclin E2, not above 0.1 µM; at CDK4/Cyclin D1 it was not above 0.1 µM.
As for `CS(=O)(=O)N1CCC(Nc2ncc(C(F)(F)F)c(-c3cnc(C4=CCCC4)s3)n2)CC1` [Example 4, 4-[2-(Cyclopenten-1-yl)-1,3-thiazol-5-yl]-N-(1-methylsulfonylpiperidin-4-yl)-5-(trifluoromethyl)pyrimidin-2-amine], the IC50 with OVCAR3 p-RB was more than 1 µM; on CDK2/Cyclin E2, not above 0.1 µM; at CDK4/Cyclin D1 it was not above 0.1 µM.
For the molecule `CS(=O)(=O)N1CCC(Nc2ncc(C(F)(F)F)c(-c3cnc(C4CCCC4)s3)n2)CC1` [Example 5, 4-(2-Cyclopentyl-1,3-thiazol-5-yl)-N-(1-methylsulfonylpiperidin-4-yl)-5-(trifluoromethyl)pyrimidin-2-amine], the IC50 on CDK2/Cyclin E2 and at CDK4/Cyclin D1 was not above 0.1 µM each time.
In the case of `CS(=O)(=O)N1CCC(Nc2ncc(C(F)(F)F)c(-c3cnc(-c4ccc(CO)cc4)s3)n2)CC1` [Example 6, [4-[5-[2-[(1-Methylsulfonylpiperidin-4-yl)amino]-5-(trifluoromethyl)-pyrimidin-4-yl]-1,3-thiazol-2-yl]phenyl]methanol], the IC50 in the test with OVCAR3 p-RB is 0.1 to 1 µM; at CDK2/Cyclin E2, not above 0.1 µM; at CDK4/Cyclin D1, not above 0.1 µM.
As to `Cc1nc(C)c(-c2nc(NC3CCN(S(C)(=O)=O)CC3)ncc2F)s1` [Example 16, 4-(2,4-dimethylthiazol-5-yl)-5-fluoro-N-(1-(methylsulfonyl)piperidin-4-yl)pyrimidin-2-amine], the values for the IC50 on CDK2/Cyclin E2 and at CDK4/Cyclin D1 were 0.1 to 1 µM and more than 1 µM, respectively.
The matching figures for `Cc1c(-c2ncc(-c3nc(NC4CCN(S(C)(=O)=O)CC4)ncc3C(F)(F)F)s2)cnn1CCO` [Example 18, 2-[5-methyl-4-[5-[2-[(1-methylsulfonylpiperidin-4-yl)amino]-5-(trifluoromethyl)pyrimidin-4-yl]-1,3-thiazol-2-yl]pyrazol-1-yl]ethanol]: not above 0.1 µM and 0.1 to 1 µM.
For the molecule `CS(=O)(=O)N1CCC(Nc2ncc(C(F)(F)F)c(-c3cnc(-c4ccccc4CO)s3)n2)CC1` [Example 23, [2-[5-[2-[(1-Methylsulfonylpiperidin-4-yl)amino]-5-(trifluoromethyl)pyrimidin-4-yl]-1,3-thiazol-2-yl]phenyl]methanol], at CDK2/Cyclin E2, the IC50 was not above 0.1 µM.
Regarding `Cc1ncc(-c2nc(NC3CCN(S(C)(=O)=O)CC3)ncc2C(F)F)s1` [Example 43, 5-(Difluoromethyl)-N-(1-methylsulfonylpiperidin-4-yl)-4-(2-methyl-1,3-thiazol-5-yl)pyrimidin-2-amine], the IC50 at CDK2/Cyclin E2 was not above 0.1 µM; at CDK4/Cyclin D1 it was 0.1 to 1 µM.
The matching figures for `CCOc1ncc(-c2nc(NC3CCN(S(C)(=O)=O)CC3)ncc2C(F)F)s1` [Example 49, 5-(Difluoromethyl)-4-(2-ethoxy-1,3-thiazol-5-yl)-N-(1-methylsulfonylpiperidin-4-yl)pyrimidin-2-amine]: 0.1 to 1 µM and 0.1 to 1 µM.
For `COc1ncc(-c2nc(NC3CCN(S(C)(=O)=O)CC3)ncc2C(F)F)s1` [Example 50, 5-(difluoromethyl)-4-(2-methoxy-1,3-thiazol-5-yl)-N-(1-methylsulfonyl-piperidin-4-yl)pyrimidin-2-amine] the same measures were not above 0.1 µM and 0.1 to 1 µM.
The matching figures for `CC(C)Oc1ncc(-c2nc(NC3CCN(S(C)(=O)=O)CC3)ncc2C(F)F)s1` [Example 51, 5-(Difluoromethyl)-N-(1-methylsulfonylpiperidin-4-yl)-4-(2-propan-2-yloxy-1,3-thiazol-5-yl)pyrimidin-2-amine]: not above 0.1 µM and not above 0.1 µM.
Regarding `COCc1ncc(-c2nc(NC3CCN(S(C)(=O)=O)CC3)ncc2C(F)(F)F)s1` [Example 53, 4-[2-(Methoxymethyl)-1,3-thiazol-5-yl]-N-(1-methylsulfonylpiperidin-4-yl)-5-(trifluoromethyl)pyrimidin-2-amine], the results for the IC50 on CDK2/Cyclin E2 and on CDK4/Cyclin D1 were not above 0.1 µM and 0.1 to 1 µM, respectively.
For `CCOC(=O)Nc1ncc(-c2nc(NC3CCN(S(C)(=O)=O)CC3)ncc2C(F)(F)F)s1` [Example 55, Ethyl N-[5-[2-[(1-methylsulfonylpiperidin-4-yl)amino]-5-(trifluoromethyl)pyrimidin-4-yl]-1,3-thiazol-2-yl]carbamate] the same measures were 0.1 to 1 µM and more than 1 µM.
Turning to `CC(C)NC(=O)Nc1ncc(-c2nc(NC3CCN(S(C)(=O)=O)CC3)ncc2C(F)(F)F)s1` [Example 56, 1-[5-[2-[(1-Methylsulfonylpiperidin-4-yl)amino]-5-(trifluoromethyl)pyrimidin-4-yl]-1,3-thiazol-2-yl]-3-propan-2-ylurea], the IC50 on CDK2/Cyclin E2 was 0.1 to 1 µM; at CDK4/Cyclin D1, more than 1 µM.
Regarding `Cc1ncc(-c2nc(NC3CCN(S(C)(=O)=O)CC3)ncc2C(F)(F)F)o1` [Example 66, 4-(2-methyl-1,3-oxazol-5-yl)-N-(1-methylsulfonylpiperidin-4-yl)-5-(trifluoromethyl)pyrimidin-2-amine], the IC50 at CDK2/Cyclin E2 is 0.1 to 1 µM; on CDK4/Cyclin D1 it was more than 1 µM.

The values are drawn from patent US20240018136A1, “CDK Inhibitors And Their Use As Pharmaceuticals” (Prelude Therapeutics, Incorporated, priority 2022, published 2024).
